Experimental findings from US7576112B2, “Therapeutic N-aryl or N-heteroaryl pyrazolidine and pyrazolidinone derivatives” (Allergan, Inc., priority 2006, dated 2009) are described below.

Experiment [1] has as its target EP4 (Homo sapiens, UniProt P35408). Description: EP4 binding (Ki). The text has this: (§1) U.S. patent application Ser. No. 11/553,143, filed on Oct. 26, 2006, incorporated by reference herein, describes the methods used to obtain the in vitro data in the table below.
The target of experiment [2] is T1, EP2 (Homo sapiens, UniProt P43116). Description: EP2 binding (Ki).
Description: as §1

For experiment [3], the target named is T2, hEP3A (Homo sapiens, UniProt P43115).
T2 sequence (P43115 1-390): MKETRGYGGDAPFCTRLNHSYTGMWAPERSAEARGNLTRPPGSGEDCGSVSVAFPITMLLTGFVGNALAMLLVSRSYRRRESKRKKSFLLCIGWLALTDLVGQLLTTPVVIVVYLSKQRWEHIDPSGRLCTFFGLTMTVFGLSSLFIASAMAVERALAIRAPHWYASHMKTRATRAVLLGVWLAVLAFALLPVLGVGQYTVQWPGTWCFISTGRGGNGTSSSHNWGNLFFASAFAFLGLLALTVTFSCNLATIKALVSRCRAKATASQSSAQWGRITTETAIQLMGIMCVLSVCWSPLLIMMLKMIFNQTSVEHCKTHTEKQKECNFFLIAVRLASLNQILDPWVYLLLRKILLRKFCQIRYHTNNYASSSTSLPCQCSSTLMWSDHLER
Put plainly: Other receptors functional assay, hEP3A. It is filed as cell-based.
Description: as §1

The target in experiment [4] is T1, EP2. Put plainly: EP2 flipr functional assay. It counts as cell-based.
Description: as §1

Experiment [5] addresses T1, EP2. Put plainly: EP2 cAMP assay. It counts as cell-based.
Description: as §1

T1 sequence (P43116 whole entry): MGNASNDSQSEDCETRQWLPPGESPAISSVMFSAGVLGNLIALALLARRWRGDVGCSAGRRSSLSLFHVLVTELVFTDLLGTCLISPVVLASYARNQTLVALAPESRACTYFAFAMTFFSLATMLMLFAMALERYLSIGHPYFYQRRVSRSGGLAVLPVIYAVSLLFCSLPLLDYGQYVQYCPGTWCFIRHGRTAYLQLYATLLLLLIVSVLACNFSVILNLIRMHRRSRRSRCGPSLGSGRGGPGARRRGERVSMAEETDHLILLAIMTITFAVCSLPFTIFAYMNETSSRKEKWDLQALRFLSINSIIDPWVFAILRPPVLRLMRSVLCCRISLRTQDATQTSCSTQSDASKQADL
Chain of EP4 (P35408 whole entry): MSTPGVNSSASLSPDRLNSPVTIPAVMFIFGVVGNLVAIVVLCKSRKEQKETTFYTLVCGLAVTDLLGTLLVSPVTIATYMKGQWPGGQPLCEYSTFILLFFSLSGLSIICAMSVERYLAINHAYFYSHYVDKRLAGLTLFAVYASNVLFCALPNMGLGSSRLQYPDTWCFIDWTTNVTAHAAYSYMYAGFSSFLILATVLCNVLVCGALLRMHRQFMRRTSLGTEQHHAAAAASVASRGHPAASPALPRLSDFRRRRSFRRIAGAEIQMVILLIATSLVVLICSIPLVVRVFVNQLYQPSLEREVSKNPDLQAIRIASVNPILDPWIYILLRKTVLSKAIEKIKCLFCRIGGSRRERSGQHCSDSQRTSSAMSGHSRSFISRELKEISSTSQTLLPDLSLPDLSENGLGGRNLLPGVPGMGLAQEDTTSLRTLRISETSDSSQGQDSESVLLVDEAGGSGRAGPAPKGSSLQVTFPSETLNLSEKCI

Turning to `CCCCC[C@H](O)c1ccc(N2C(=O)CCN2CCCc2ccc(C(=O)O)s2)cc1` (stereo in doubt) [5-(3-(2-(4-(1-hydroxyhexyl)phenyl)-3-oxopyrazolidin-1-yl)propyl)thiophene-2-carboxylic Acid], the Ki was above 10000 nM in experiment [1] and 251 nM in experiment [2]. The values for the EC50 in experiment [3], in experiment [4] and in experiment [5] were 5070 nM, 79 nM and 1.8 nM, respectively.
